Measurements as given in ChEMBL document CHEMBL1201862, “PubChem BioAssay data set” (2004).
Counter-ions that a name gives are not always drawn.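 All cell lines were grown in 96-well plates and treated with compound for 48 hours. At the GI50, growth is halved.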 Activity calls are given as the source filed them. Cut-off read from the data, not from the text of the source: active = GI50 up to about 1.1 µM and inactive = higher.

What was measured:
Assay in all cases: growth of human tumour cells (NCI), 48 h
SK-OV-3 = system: SK-OV-3
KM-20L2 = system: KM-20L2
HCC 2998 = system: HCC 2998
MOLT-4 = system: MOLT-4
M19-MEL = system: M19-MEL
SF-539 = system: SF-539
XF498 = system: XF498
SK-MEL-5 = system: SK-MEL-5
LXFL 529 = system: LXFL 529
A498 = system: A498
RXF 631 = system: RXF 631
ACHN = system: ACHN
HOP-62 = system: HOP-62
SNB-75 = system: SNB-75
DMS-273 = system: DMS-273
DMS-114 = system: DMS-114
HCT-116 = system: HCT-116
SK-MEL-2 = system: SK-MEL-2
EKVX = system: EKVX
HCT-15 = system: HCT-15
NCI-H460 = system: NCI-H460
OVCAR-3 = system: OVCAR-3
LOX IMVI = system: LOX IMVI
SN12C = system: SN12C
CAKI-1 = system: CAKI-1
M14 = system: M14
IGROV-1 = system: IGROV-1
U-251 = system: U-251
A549 = system: A549
Malme-3M = system: Malme-3M
CCRF-CEM = system: CCRF-CEM
OVCAR-8 = system: OVCAR-8
DLD-1 = system: DLD-1
HT-29 = system: HT-29
K562 = system: K562
UACC-62 = system: UACC-62
SK-MEL-28 = system: SK-MEL-28
TK-10 = system: TK-10
UO-31 = system: UO-31
SF-268 = system: SF-268
SF-295 = system: SF-295
SW-620 = system: SW-620
OVCAR-4 = system: OVCAR-4
786-0 = system: 786-0
SNB-19 = system: SNB-19
RXF 393 = system: RXF 393
COLO 205 = system: COLO 205
NCI-H23 = system: NCI-H23
KM12 = system: KM12
OVCAR-5 = system: OVCAR-5
HOP-18 = system: HOP-18
UACC-257 = system: UACC-257
SNB-78 = system: SNB-78
RPMI-8226 = system: RPMI-8226
HL-60 = system: HL-60
NCI-H226 = system: NCI-H226
HOP-92 = system: HOP-92

## O=c1c2ccccc2oc2nccnc12
SK-OV-3
  GI50: > 100 µM (inactive)
KM-20L2
  GI50: > 100 µM (inactive)
HCC 2998
  GI50: > 100 µM (inactive)
MOLT-4
  GI50: > 100 µM (inactive)
M19-MEL
  GI50: > 100 µM (inactive)
SF-539
  GI50: > 100 µM (inactive)
XF498
  GI50: > 100 µM (inactive)
SK-MEL-5
  GI50: > 100 µM (inactive)
LXFL 529
  GI50: > 100 µM (inactive)
A498
  GI50: > 100 µM (inactive)
RXF 631
  GI50: > 100 µM (inactive)
ACHN
  GI50: > 100 µM (inactive)
HOP-62
  GI50: > 100 µM (inactive)
SNB-75
  GI50: > 100 µM (inactive)
DMS-273
  GI50: > 100 µM (inactive)
DMS-114
  GI50: > 100 µM (inactive)
HCT-116
  GI50: > 100 µM (inactive)
SK-MEL-2
  GI50: > 100 µM (inactive)
EKVX
  GI50: > 100 µM (inactive)
HCT-15
  GI50: > 100 µM
NCI-H460
  GI50: > 100 µM (inactive)
OVCAR-3
  GI50: > 100 µM (inactive)
LOX IMVI
  GI50: > 100 µM (inactive)
SN12C
  GI50: > 100 µM (inactive)
CAKI-1
  GI50: > 100 µM (inactive)
M14
  GI50: > 100 µM (inactive)
IGROV-1
  GI50: > 100 µM (inactive)
U-251
  GI50: > 100 µM (inactive)
A549
  GI50: > 100 µM (inactive)
Malme-3M
  GI50: > 100 µM (inactive)
CCRF-CEM
  GI50: > 100 µM (inactive)
OVCAR-8
  GI50: > 100 µM (inactive)
DLD-1
  GI50: > 100 µM (inactive)
HT-29
  GI50: > 100 µM (inactive)
K562
  GI50: > 100 µM (inactive)
UACC-62
  GI50: > 100 µM (inactive)
SK-MEL-28
  GI50: > 100 µM (inactive)
TK-10
  GI50: > 100 µM (inactive)
UO-31
  GI50: > 100 µM (inactive)
SF-268
  GI50: > 100 µM (inactive)
SF-295
  GI50: > 100 µM (inactive)
SW-620
  GI50: > 100 µM (inactive)
OVCAR-4
  GI50: > 100 µM (inactive)
786-0
  GI50: > 100 µM (inactive)
SNB-19
  GI50: > 100 µM (inactive)
RXF 393
  GI50: > 100 µM (inactive)
COLO 205
  GI50: > 100 µM (inactive)
NCI-H23
  GI50: > 100 µM (inactive)
KM12
  GI50: > 100 µM (inactive)
OVCAR-5
  GI50: > 100 µM (inactive)
HOP-18
  GI50: > 100 µM (inactive)
UACC-257
  GI50: > 100 µM (inactive)
SNB-78
  GI50: > 100 µM (inactive)
RPMI-8226
  GI50: > 100 µM (inactive)

## Cc1nccc2c1[nH]c1cc(O)ccc12 [HARMOL HYDROCHLORIDE]
SK-OV-3
  GI50: > 100 µM (inactive)
KM-20L2
  GI50: > 100 µM (inactive)
HCC 2998
  GI50: 91 µM (inactive)
MOLT-4
  GI50: 23.7 µM (inactive)
M19-MEL
  GI50: > 100 µM (inactive)
HL-60
  GI50: 29 µM (inactive)
NCI-H226
  GI50: 96.6 µM (inactive)
SF-539
  GI50: 73.3 µM (inactive)
XF498
  GI50: 28.4 µM (inactive)
SK-MEL-5
  GI50: 69.2 µM (inactive)
LXFL 529
  GI50: > 100 µM (inactive)
A498
  GI50: 63.4 µM (inactive)
RXF 631
  GI50: > 100 µM (inactive)
ACHN
  GI50: 31.8 µM (inactive)
HOP-62
  GI50: 91.6 µM (inactive)
SNB-75
  GI50: 33 µM (inactive)
DMS-273
  GI50: 54.5 µM (inactive)
DMS-114
  GI50: 70.3 µM (inactive)
HCT-116
  GI50: 41.5 µM (inactive)
SK-MEL-2
  GI50: > 100 µM (inactive)
EKVX
  GI50: 68.2 µM (inactive)
HCT-15
  GI50: 61.4 µM
NCI-H460
  GI50: 37.4 µM (inactive)
OVCAR-3
  GI50: 42.5 µM (inactive)
HOP-92
  GI50: 27.5 µM (inactive)
LOX IMVI
  GI50: 45.6 µM (inactive)
SN12C
  GI50: 76.4 µM (inactive)
CAKI-1
  GI50: 41.1 µM (inactive)
M14
  GI50: > 100 µM (inactive)
IGROV-1
  GI50: 45.8 µM (inactive)
U-251
  GI50: > 100 µM (inactive)
A549
  GI50: 44.8 µM (inactive)
Malme-3M
  GI50: 44.7 µM (inactive)
CCRF-CEM
  GI50: 38.5 µM (inactive)
OVCAR-8
  GI50: 49.2 µM (inactive)
DLD-1
  GI50: 51.1 µM (inactive)
HT-29
  GI50: 56.5 µM (inactive)
K562
  GI50: 37.1 µM (inactive)
UACC-62
  GI50: 96.6 µM (inactive)
SK-MEL-28
  GI50: > 100 µM (inactive)
TK-10
  GI50: > 100 µM (inactive)
UO-31
  GI50: 37.6 µM (inactive)
SF-268
  GI50: > 100 µM (inactive)
SF-295
  GI50: 33 µM (inactive)
SW-620
  GI50: 39.1 µM (inactive)
OVCAR-4
  GI50: > 100 µM (inactive)
786-0
  GI50: 55.2 µM (inactive)
SNB-19
  GI50: > 100 µM (inactive)
RXF 393
  GI50: > 100 µM (inactive)
COLO 205
  GI50: > 100 µM (inactive)
NCI-H23
  GI50: 76.7 µM (inactive)
KM12
  GI50: 55.8 µM (inactive)
OVCAR-5
  GI50: 68.2 µM (inactive)
HOP-18
  GI50: 38 µM (inactive)
UACC-257
  GI50: 82.4 µM (inactive)
SNB-78
  GI50: > 100 µM (inactive)
RPMI-8226
  GI50: 44.5 µM (inactive)
